Reference: the supplement of paper PMC6045584
± gives the standard deviation of the averaged measurements.

Key:
[1] = compound: C[C@@H](Oc1cc(-c2cnn(C3CCNCC3)c2)cnc1N)c1c(Cl)ccc(F)c1Cl; experiment: surviving fraction relative to DMSO-only wells; higher = less growth inhibition; settings: exposure time: 5 days
How it was run: (§1)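 Viability values are CellTiter-Glo luminescence readings, given as surviving fraction against the median of DMSO-only wells. The readings were taken after 10 minutes at room temperature, following five days of continuous exposure to inhibitors at 0.5, 1, 5, 10, 50, 100, 500 and 1000 nM that began 24 hours after log-phase tumour cell lines were seeded at 250–500 cells per well in 384-well plates. Every line was screened three times and kept only if replicate Pearson r >0.7 and median Z' >0.3.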

[2] = compound: COc1cc2ncnc(Nc3ccc(F)c(Cl)c3)c2cc1NC(=O)/C=C/CN1CCCCC1; experiment: as above; settings: exposure time: 5 days
How it was run: as §1

Test System	surviving fraction ([1]; 0.5 nM)	surviving fraction ([1]; 1 nM)	surviving fraction ([1]; 5 nM)	surviving fraction ([1]; 10 nM)	surviving fraction ([1]; 100 nM)	surviving fraction ([1]; 500 nM)	surviving fraction ([1]; 1000 nM)	surviving fraction ([2]; 0.5 nM)	surviving fraction ([2]; 1 nM)	surviving fraction ([2]; 5 nM)	surviving fraction ([2]; 10 nM)	surviving fraction ([2]; 50 nM)	surviving fraction ([2]; 100 nM)	surviving fraction ([2]; 500 nM)	surviving fraction ([2]; 1000 nM)	surviving fraction ([1]; 50 nM)
LM7 BONE	0.745 ± 0.03	0.765 ± 0.027	0.779 ± 0.026	0.782 ± 0.075	0.859 ± 0.081	0.366 ± 0.031	0.168 ± 0.0087	0.93 ± 0.059	0.998 ± 0.078	0.983 ± 0.063	1.06 ± 0.094	1.01 ± 0.011	0.957 ± 0.055	0.532 ± 0.063	0.287 ± 0.006	–
LNCAP PROSTATE	1.07 ± 0.056	1.16 ± 0.13	1.15 ± 0.034	1.13 ± 0.12	0.801 ± 0.17	0.528 ± 0.075	0.464 ± 0.031	0.807 ± 0.074	0.828 ± 0.13	0.858 ± 0.19	0.888 ± 0.16	0.95 ± 0.043	1.02 ± 0.048	0.896 ± 0.097	0.797 ± 0.12	1 ± 0.045
MCF7 BREAST	0.826 ± 0.063	0.818 ± 0.027	0.827 ± 0.046	0.802 ± 0.03	0.834 ± 0.034	0.755 ± 0.011	0.511 ± 0.017	0.908 ± 0.061	0.938 ± 0.022	0.922 ± 0.08	0.971 ± 0.096	1.01 ± 0.043	0.966 ± 0.034	1.01 ± 0.012	0.927 ± 0.07	0.89 ± 0.021
MDAMB134 BREAST	0.712 ± 0.097	0.718 ± 0.13	0.624 ± 0.11	0.667 ± 0.0014	0.767 ± 0.038	0.758 ± 0.097	0.709 ± 0.1	0.947 ± 0.17	1.07 ± 0.061	0.944 ± 0.014	0.981 ± 0.14	1.05 ± 0.28	1.02 ± 0.21	0.795 ± 0.012	0.732 ± 0.013	0.854 ± 0.029
MDAMB157 BREAST	–	0.818 ± 0.016	0.967 ± 0.042	0.95 ± 0.029	0.836 ± 0.097	0.451 ± 0.017	0.569 ± 0.071	0.951 ± 0.025	0.894 ± 0.018	1 ± 0.046	0.964 ± 0.056	0.95 ± 0.094	0.864 ± 0.051	0.887 ± 0.1	0.63 ± 0.095	0.877 ± 0.038
MDAMB231 BREAST	–	0.939 ± 0.017	0.957 ± 0.022	0.939 ± 0.025	0.8698 ± 0.0057	0.437 ± 0.014	0.303 ± 0.012	1.03 ± 0.024	1.02 ± 0.024	1.05 ± 0.019	1.047 ± 0.01	1.02 ± 0.035	1 ± 0.024	0.692 ± 0.022	0.488 ± 0.039	0.955 ± 0.013
MDAMB361 BREAST	0.779 ± 0.017	0.768 ± 0.029	0.807 ± 0.043	–	0.858 ± 0.026	1.04 ± 0.053	1.02 ± 0.047	0.896 ± 0.049	0.909 ± 0.035	0.922 ± 0.052	0.833 ± 0.03	0.738 ± 0.017	0.745 ± 0.055	0.586 ± 0.019	0.543 ± 0.046	–
MDAMB436 BREAST	0.833 ± 0.046	0.828 ± 0.06	0.844 ± 0.057	0.822 ± 0.046	0.962 ± 0.067	0.872 ± 0.036	0.736 ± 0.027	0.922 ± 0.08	0.975 ± 0.077	0.895 ± 0.021	0.971 ± 0.17	0.996 ± 0.053	0.89 ± 0.11	0.771 ± 0.065	0.706 ± 0.085	0.996 ± 0.014
MDAMB453 BREAST	0.994 ± 0.054	–	1.02 ± 0.074	1.03 ± 0.026	1.06 ± 0.05	0.771 ± 0.029	0.637 ± 0.013	1.05 ± 0.021	1.04 ± 0.08	1.03 ± 0.1	1.09 ± 0.093	1.07 ± 0.044	0.887 ± 0.048	0.705 ± 0.033	0.509 ± 0.069	1.06 ± 0.014
MDAMB468 BREAST	0.845 ± 0.076	–	–	0.9157 ± 0.004	1.05 ± 0.041	0.551 ± 0.081	0.234 ± 0.019	0.997 ± 0.094	1.04 ± 0.033	0.8783 ± 0.0035	0.854 ± 0.063	0.626 ± 0.013	0.676 ± 0.035	0.438 ± 0.016	0.286 ± 0.014	0.972 ± 0.066
MFM223 BREAST	0.7 ± 0.052	0.747 ± 0.044	–	0.751 ± 0.042	0.934 ± 0.019	0.985 ± 0.064	0.836 ± 0.096	1.094 ± 0.01	1.09 ± 0.042	1.14 ± 0.073	1.15 ± 0.072	1.2 ± 0.078	1.19 ± 0.06	0.914 ± 0.06	0.587 ± 0.055	1.05 ± 0.14
MG63 BONE	0.898 ± 0.011	0.912 ± 0.016	–	–	0.827 ± 0.023	0.711 ± 0.02	0.607 ± 0.004	1.04 ± 0.072	1 ± 0.049	1.05 ± 0.033	1.06 ± 0.062	1.04 ± 0.056	1.03 ± 0.08	0.911 ± 0.039	0.89 ± 0.073	0.91 ± 0.029
MHM BONE	0.982 ± 0.041	0.991 ± 0.02	0.991 ± 0.023	0.993 ± 0.023	0.977 ± 0.011	0.905 ± 0.018	0.817 ± 0.012	1.01 ± 0.044	0.998 ± 0.021	1.02 ± 0.025	0.998 ± 0.032	1.01 ± 0.011	1.03 ± 0.024	0.974 ± 0.011	0.926 ± 0.016	–
NCIH441 LUNG	0.999 ± 0.039	0.982 ± 0.03	0.956 ± 0.045	0.998 ± 0.068	0.885 ± 0.026	0.885 ± 0.11	0.652 ± 0.079	1.08 ± 0.13	1.04 ± 0.041	1.05 ± 0.073	1.06 ± 0.04	0.981 ± 0.038	0.859 ± 0.12	0.689 ± 0.051	0.5 ± 0.013	0.996 ± 0.046
NOS1 BONE	0.889 ± 0.05	0.856 ± 0.046	–	0.929 ± 0.1	0.988 ± 0.04	0.742 ± 0.055	0.401 ± 0.026	1.1 ± 0.045	1.15 ± 0.077	1.14 ± 0.051	1.17 ± 0.094	1.12 ± 0.16	0.968 ± 0.033	0.26 ± 0.011	0.135 ± 0.012	1.17 ± 0.06
NY BONE	0.948 ± 0.02	0.9253 ± 0.0076	0.959 ± 0.0089	0.9633 ± 0.0086	0.885 ± 0.022	0.701 ± 0.03	0.524 ± 0.018	0.99 ± 0.014	0.975 ± 0.032	1.05 ± 0.032	1.01 ± 0.071	1.04 ± 0.044	1 ± 0.051	0.756 ± 0.011	0.514 ± 0.01	0.9303 ± 0.0083
OS25HAL BONE	0.913 ± 0.013	–	0.92 ± 0.015	0.9 ± 0.014	0.937 ± 0.016	0.813 ± 0.1	0.285 ± 0.043	0.995 ± 0.013	0.972 ± 0.011	1.02 ± 0.032	0.981 ± 0.0017	1.05 ± 0.044	1.07 ± 0.015	1.012 ± 0.0087	0.964 ± 0.011	0.969 ± 0.017
OSHN BONE	0.908 ± 0.013	0.9047 ± 0.0064	0.91 ± 0.0079	0.9 ± 0.01	0.971 ± 0.018	0.868 ± 0.013	0.189 ± 0.029	1.07 ± 0.034	1.06 ± 0.044	1.08 ± 0.033	1.05 ± 0.035	1.1 ± 0.037	1.1 ± 0.027	1.06 ± 0.047	1.029 ± 0.0075	0.992 ± 0.023
PCI30 HEADNECK	0.959 ± 0.036	–	1.07 ± 0.058	–	1.11 ± 0.046	0.679 ± 0.039	0.513 ± 0.016	0.985 ± 0.029	1.01 ± 0.087	0.649 ± 0.07	0.551 ± 0.078	0.393 ± 0.01	0.392 ± 0.013	0.194 ± 0.035	0.0737 ± 0.0085	1.06 ± 0.076
RDES SOFT TISSUE	0.735 ± 0.13	0.716 ± 0.093	0.832 ± 0.028	0.69 ± 0.075	0.926 ± 0.17	1.26 ± 0.02	0.127 ± 0.023	1.27 ± 0.17	1.28 ± 0.086	1.28 ± 0.059	1.33 ± 0.18	1.28 ± 0.2	1.23 ± 0.13	1.23 ± 0.15	1.22 ± 0.1	1.02 ± 0.19
S68 BREAST	0.733 ± 0.09	0.819 ± 0.31	–	0.838 ± 0.19	0.847 ± 0.16	0.567 ± 0.19	0.398 ± 0.084	0.768 ± 0.15	1.01 ± 0.15	1.03 ± 0.27	0.764 ± 0.12	0.701 ± 0.085	0.667 ± 0.14	0.603 ± 0.033	0.256 ± 0.024	–
SAOS2 BONE	0.7737 ± 0.0011	0.866 ± 0.018	–	0.874 ± 0.036	0.971 ± 0.046	0.319 ± 0.012	0.164 ± 0.012	1.17 ± 0.02	1.14 ± 0.017	1.14 ± 0.038	1.13 ± 0.07	1.1 ± 0.062	1.13 ± 0.064	0.762 ± 0.044	0.513 ± 0.028	1.06 ± 0.08
